The source of these data is patent publication US20250171437A1 (Agios Pharmaceuticals,Inc., priority 2022, published 2025).

This assay addresses T1, human PAH with the R408W mutation (A375 R408W cells) (Homo sapiens, UniProt P00439, R408W).
T1 construct: expressed in transfected cells
T1 sequence (P00439 1-452 R408W): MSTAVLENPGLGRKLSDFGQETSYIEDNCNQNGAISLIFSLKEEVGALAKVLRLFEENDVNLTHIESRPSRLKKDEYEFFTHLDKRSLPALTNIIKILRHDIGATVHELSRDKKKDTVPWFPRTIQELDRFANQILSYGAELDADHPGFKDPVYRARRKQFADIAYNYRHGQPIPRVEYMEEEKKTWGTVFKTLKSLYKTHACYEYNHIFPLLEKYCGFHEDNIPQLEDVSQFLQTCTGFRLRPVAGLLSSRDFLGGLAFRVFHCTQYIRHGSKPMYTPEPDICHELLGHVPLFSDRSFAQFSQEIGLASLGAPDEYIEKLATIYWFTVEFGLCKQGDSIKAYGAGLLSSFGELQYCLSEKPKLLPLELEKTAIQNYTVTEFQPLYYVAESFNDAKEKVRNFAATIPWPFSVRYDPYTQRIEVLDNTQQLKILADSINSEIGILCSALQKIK
The assay can be described thus: Cell Based Phenylalanine Flux Assay. The settings on record: 24 hrs with compound, then 20 μM sepiapterin and 800 μM 13C9,15N-Phenylalanine for 4 hours, 13C-Tyrosine by LC-MS, average where tested multiple times. The gist of the method:
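Puromycin-selected A375 line, lentiviral hPAH R408W; cmpd 24 h, 37 °C, 5% CO2, 0.5% DMSO; then 20 μM sepiapterin + 800 μM 13C9,15N-Phe, 4 h; media extracted in 80% MeCN; 13C-Tyr by LC-MS; AC50 from 10-pt curves.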

Setting [1] is: A375 cells expressing R408W PAH.

One may read the AC50 as the concentration at which the activity in the assay is half-maximal. For `O=C(c1ocnc1CC(F)F)N1CCc2[nH]cnc2[C@H]1c1nc2ccccc2o1` [Example 873, (S)-(4-(benzo[d]oxazol-2-yl)-6,7-dihydro-1H-imidazo[4,5-c]pyridin-5(4H)-yl)(4-(2,2-difluoroethyl)oxazol-5-yl)methanone], the AC50 (A375 R408W cells) is no more than 500 nM.
Still for that read-out and setting: the value for `O=C(c1nnc(-c2ccccn2)o1)N1CCc2[nH]cnc2[C@@H]1c1nc2cccc(F)c2o1` [Example 336, (R)-(4-(7-fluorobenzo[d]oxazol-2-yl)-6,7-dihydro-1H-imidazo[4,5-c]pyridin-5(4H)-yl)(5-(pyridin-2-yl)-1,3,4-oxadiazol-2-yl)methanone] was 500 to 1000 nM.
For the compound `CNc1ccc2c(C(=O)N3CCc4[nH]cnc4C3c3nc4cc(F)ccc4o3)cnn2c1` (centres unmarked), the AC50 under setting [1] is 1000 to 5000 nM.
In the case of `O=C(c1oc(COC(F)(F)F)nc1C(F)F)N1CCc2[nH]cnc2[C@@H]1c1nc2cc(F)ccc2o1` [Example 116, (R)-(4-(difluoromethyl)-2-((trifluoromethoxy)methyl)oxazol-5-yl)(4-(5-fluorobenzo[d]oxazol-2-yl)-6,7-dihydro-1H-imidazo[4,5-c]pyridin-5(4H)-yl)methanone], under “A375 R408W cells”, the AC50 lay in the range of 1000 to 5000 nM.
As to `Cc1ccc2c(C(=O)N3CCc4[nH]cnc4[C@@H]3c3nc4cc(F)ccc4o3)cnn2c1` [Example 20, (R)-(4-(5-fluorobenzo[d]oxazol-2-yl)-6,7-dihydro-1H-imidazo[4,5-c]pyridin-5(4H)-yl)(6-methylpyrazolo[1,5-a]pyridin-3-yl)methanone], the AC50 (A375 R408W cells) is no less than 5000 nM.
For the compound `O=C(CCc1cnco1)N1CCc2[nH]cnc2C1c1nc2c(F)cccc2o1` (centres unmarked), the AC50 under setting [1] was in the range of 1000 to 5000 nM.
For the compound `O=C(c1nnc(C2CC2)o1)N1CCc2[nH]cnc2[C@@H]1c1nc2cc(F)ccc2o1` [Example 16, (R)-(5-cyclopropyl-1,3,4-oxadiazol-2-yl)(4-(5-fluorobenzo[d]oxazol-2-yl)-6,7-dihydro-1H-imidazo[4,5-c]pyridin-5(4H)-yl)methanone], the AC50 (A375 R408W cells) was in the range of 1000 to 5000 nM.
As for `Cn1nc(C(C)(C)C)cc1C(=O)N1CCc2[nH]cnc2C1c1nc2cccc(F)c2o1` (centres unmarked), the AC50 under setting [1] was no less than 5000 nM.
For `Cc1ncoc1C(=O)N1CCc2[nH]cnc2[C@@H]1c1nc2ccc(F)cc2o1` [Example 598, (R)-(4-(6-fluorobenzo[d]oxazol-2-yl)-6,7-dihydro-1H-imidazo[4,5-c]pyridin-5(4H)-yl)(4-methyloxazol-5-yl)methanone], the AC50 (A375 R408W cells) was 1000 to 5000 nM.
Same read-out and setting: the value for `O=C(c1ocnc1C(F)F)N1CCc2[nH]cnc2[C@H]1c1nc2cccc(Br)c2o1` [Example 461, (S)-(4-(7-bromobenzo[d]oxazol-2-yl)-6,7-dihydro-1H-imidazo[4,5-c]pyridin-5(4H)-yl)(4-(difluoromethyl)oxazol-5-yl)methanone] was no more than 500 nM; that for `CC(C)(O)c1nc(C(F)(F)F)c(C(=O)N2CCc3[nH]cnc3[C@@H]2c2nc3cccc(F)c3o2)o1` [Example 254, (R)-(4-(7-fluorobenzo[d]oxazol-2-yl)-6,7-dihydro-1H-imidazo[4,5-c]pyridin-5(4H)-yl)(2-(2-hydroxypropan-2-yl)-4-(trifluoromethyl)oxazol-5-yl)methanone] was no more than 500 nM.
Regarding `Cc1ccc2nc(C3c4nc[nH]c4CCN3C(=O)c3cnn4cc(CN(C)C)ccc34)oc2c1` (centres unmarked), the AC50 under setting [1] fell in the range of 1000 to 5000 nM.
The same measure, in the same setting: the result for `Nc1cc2c(C(=O)N3CCc4[nH]cnc4C3c3nc4cc(F)ccc4o3)cnn2cc1F` (centres unmarked) reads no less than 5000 nM.
On the same count and under the same terms, the value for `Cn1cc(-c2ncc(C(=O)N3CCc4[nH]cnc4C3c3nc4cc(F)ccc4o3)o2)cn1` (centres unmarked) was 1000 to 5000 nM.
Consider `O=C(c1nnc(NC2CC2)o1)N1CCc2[nH]cnc2C1c1nc2cc(F)ccc2o1` (centres unmarked), for which the AC50 under setting [1] fell in the range of 1000 to 5000 nM.
As for `O=C(c1ocnc1C(F)F)N1CCc2[nH]cnc2[C@@H]1c1nc2cccc(F)c2o1` [Example 174, (R)-(4-(difluoromethyl)oxazol-5-yl)(4-(7-fluorobenzo[d]oxazol-2-yl)-6,7-dihydro-1H-imidazo[4,5-c]pyridin-5(4H)-yl)methanone], the AC50 (A375 R408W cells) was no more than 500 nM.
`COc1ccc2oc(C3c4nc[nH]c4CCN3C(=O)c3cnc(C(C)(C)O)o3)nc2c1` (centres unmarked): the AC50 under setting [1] is 1000 to 5000 nM.
